Experimental data as given in US9815841B2, “Compounds” (GLAXOSMITHKLINE INTELLECTUAL PROPERTY DEVELOPMENT LIMITED, priority 2014, dated 2017).

The compounds below were run against T1, purified recombinant 6HIS-Tev-LRRK2 (1326-2527) (Homo sapiens, UniProt Q5S007) (assay: Recombinant LRRK2 enzyme peptide substrate TR-FRET assay). Settings: 60 nM LRRK2 (1326-2527), 1 uM Biotin-longer LRRKtide, 10 uM ATP; read-out: recombinant LRRK2 enzyme peptide substrate TR-FRET assay (pIC50) (converted).
T1 construct: A LRRK2 cDNA encoding residues 1326-2527 was received from Dundee University; made in house; host or cells: Spodoptera frugiperda (Sf9) insect cells, baculovirus (pFB-HTb)
T1 sequence (Q5S007 1326-2527): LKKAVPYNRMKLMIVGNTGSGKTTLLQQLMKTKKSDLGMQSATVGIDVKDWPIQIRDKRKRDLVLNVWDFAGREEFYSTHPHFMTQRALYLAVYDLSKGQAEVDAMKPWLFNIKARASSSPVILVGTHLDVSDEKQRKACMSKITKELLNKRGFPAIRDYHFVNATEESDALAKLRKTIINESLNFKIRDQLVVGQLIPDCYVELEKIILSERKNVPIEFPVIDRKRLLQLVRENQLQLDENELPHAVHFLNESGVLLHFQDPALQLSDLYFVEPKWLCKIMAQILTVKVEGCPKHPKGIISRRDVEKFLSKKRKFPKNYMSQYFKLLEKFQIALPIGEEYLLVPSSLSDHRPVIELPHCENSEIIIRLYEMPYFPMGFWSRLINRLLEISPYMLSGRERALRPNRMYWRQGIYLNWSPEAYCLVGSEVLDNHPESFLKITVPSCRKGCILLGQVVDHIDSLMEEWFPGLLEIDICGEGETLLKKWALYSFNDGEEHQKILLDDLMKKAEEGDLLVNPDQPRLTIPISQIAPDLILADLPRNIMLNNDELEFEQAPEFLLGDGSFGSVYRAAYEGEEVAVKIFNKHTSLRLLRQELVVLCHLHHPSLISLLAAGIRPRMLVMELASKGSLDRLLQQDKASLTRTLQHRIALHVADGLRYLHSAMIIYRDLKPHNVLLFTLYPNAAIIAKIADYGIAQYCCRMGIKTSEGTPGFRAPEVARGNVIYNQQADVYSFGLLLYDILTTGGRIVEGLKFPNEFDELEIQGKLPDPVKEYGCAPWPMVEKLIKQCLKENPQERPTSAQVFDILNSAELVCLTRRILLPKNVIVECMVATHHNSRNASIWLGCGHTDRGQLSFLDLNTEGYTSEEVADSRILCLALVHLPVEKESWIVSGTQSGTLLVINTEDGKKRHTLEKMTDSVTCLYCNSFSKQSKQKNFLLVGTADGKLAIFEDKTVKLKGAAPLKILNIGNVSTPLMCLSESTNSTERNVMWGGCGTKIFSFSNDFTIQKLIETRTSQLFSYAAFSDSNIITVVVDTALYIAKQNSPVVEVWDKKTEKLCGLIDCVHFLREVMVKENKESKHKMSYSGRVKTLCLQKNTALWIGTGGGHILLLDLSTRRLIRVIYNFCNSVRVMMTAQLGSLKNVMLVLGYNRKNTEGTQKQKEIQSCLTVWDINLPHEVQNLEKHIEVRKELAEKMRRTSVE
Assay type: biochemical
Procedure: This gene fragment was subcloned into pFB-HTb (Invitrogen) using BamHI and NotI restriction sites. The LRRK2 plasmid was recombined into the baculovirus genome according to the BAC-to-BAC protocol described by Invitrogen. Transfection into Spodoptera frugiperda (Sf9) insect cells was performed using Cellfectin (Invitrogen), according to the manufacturer's protocol to generate P1 and P2 baculovirus stocks.
Sf9 cells were grown in HyClone SFX (Thermo Scientific) growth media at 27° C., 80 rpm in shake flask until of a sufficient volume to inoculate a bioreactor. […] The cells were infected with P2 Baculovirus at a multiplicity of infection (MOI) of 3. The cultivation was continued for a 48 hour expression phase. The infected cells were removed from the growth media by centrifugation at 2500 g using a Sorvall RC 3C Plus centrifuge at 2500 g for 20 minutes. The cell pellet was immediately frozen and subsequently supplied for purification.
A 260 g pellet was allowed to thaw in a water bath at 27° C. with 800 ml lysis buffer/buffer A (50 mm Tris-HCl pH 8.5, 300 mM NaCl, 1 mm DTT, 10% glycerol, 1 ml/L calbiochem complete protease inhibitor cocktail and benzonase (50 ul/800 ml)) before being dounce homogenised on ice using 20 strokes per 100 ml. The suspension was packed in ice and sonicated at 50% amplitude for 3 min 10 sec on/off using a ¾″ probe. The suspension was then centrifuged at 100,000 g for 90 min, at 4° C.
The lysate (700 ml) was decanted from the insoluble pellet and contacted for 3 h at 4 C with 10 ml His bind Ni NTA resin by end over end mixing. The resin was recovered by centrifugation, 3000 g, 5 min at 4 C, and packed in an XK16 column. The column was then washed with 10 column volumes buffer A, 10 column volumes buffer B (buffer A+1M NaCl) and 10 column volumes buffer C (buffer A+20 mM imidazole). The column was then eluted with 15 column volumes buffer D (buffer A+300 mM imidazole) collecting 2 ml fractions. All washes and elution were conducted at 4 ml/min.
Fractions identified by SDS-PAGE as containing protein of interest were pooled and loaded directly onto a 320 ml SEC Superdex 200 pg column that was pre-equilibrated with buffer E (50 mM Tris-HCl pH 8.5, 300 mM NaCl, 10% glycerol, 1 mM DTT). The column was loaded and eluted with 1.2 column volumes buffer E at 2 ml/min collecting 2 ml fractions. Fractions identified by SDS-PAGE as containing protein of interest were tested for activity.
Production of Biotin-Longer LRRKtide
The resulting crude peptide was cleaved from the resin using a 95:2.5:2.5 mix of trifluoroacetic acid:triisopropylsilane:water.
Recombinant LRRK2 Enzyme Peptide Substrate TR-FRET Assay
Assay Protocol • 1. A 10 mM test compound was dissolved in 100% DMSO and serially diluted 1 in 4. 100 nL was then added to a 384 well low volume black plate, excluding columns 6 and 18. 100 nL of DMSO was added to columns 6 and 18 as controls wells. […] Test plates were then incubated for 30 minutes at room temperature. • 3. 3 uL ‘substate solution’ containing 2 uM Biotin-longer LRRKtide peptide substrate and 20 uM ATP was added to all wells of the plate using a multidrop combi dispenser giving a final assay concentration of 1 uM Biotin-longer LRRKtide and 10 uM ATP. Test plates were then incubated for 2 hours at room temperature. (Incubation may vary depending on rate and linearity of reaction with different enzyme batches). • 4. […] Data is analysed using ActivityBase software (IDBS). Dilutions and concentrations of reagents determined on a batch to batch basis

CCOc1nc(Nc2ccc(C(=O)N3CCOCC3)cc2OC)nc2[nH]ccc12 [Example E1, (4-((4-ethoxy-7H-pyrrolo-[2,3-d]-pyrimidin-2-yl)amino)-3-methoxyphenyl)(morpholino)methanone] and CCOc1cc(C(=O)N2CCOCC2)ccc1Nc1nc(OCC)c2cc[nH]c2n1 [Example E20, (3-ethoxy-4-((4-ethoxy-7H-pyrrolo-[2,3-d]pyrimidin-2-yl)amino)phenyl)(morpholino)methanone] are within 1.5-fold of each other in IC50: 0.0126 µM for the first, 0.01 µM for the second.

CCOc1nc(Nc2cc(F)c(C(=O)N3CCOCC3)cc2OC)nc2[nH]ccc12 [Example E2, (4-((4-ethoxy-7H-pyrrolo-[2,3-d]-pyrimidin-2-yl)amino)-2-fluoro-5-methoxyphenyl)(morpholino)methanone] and CCOc1nc(Nc2ccc(C(=O)N3CCOCC3)cc2)nc2[nH]ccc12 [Example E9, (4-((4-ethoxy-7H-pyrrolo-[2,3-d]pyrimidin-2-yl)amino)phenyl)(morpholino)methanone] cannot be ordered by IC50: 0.00794 µM for the first, no more than 0.01 µM for the second.

CCOc1nc(Nc2ccc(C(=O)N3CCN(C)CC3)cc2OC)nc2[nH]ccc12 [Example E3, (4-((4-ethoxy-7H-pyrrolo-[2,3-d]-pyrimidin-2-yl)amino)-3-methoxyphenyl)(4-methylpiperazin-1-yl)-methanone] and CCOc1nc(Nc2ccc(C(=O)N3CCN(C)CC3)cc2OC(C)C)nc2[nH]ccc12 [Example E24, (4-((4-ethoxy-7H-pyrrolo-[2,3-d]pyrimidin-2-yl)amino)-3-isopropoxyphenyl)(4-methylpiperazin-1-yl)methanone] are within 1.5-fold of each other in IC50: 0.00794 µM for the first, 0.01 µM for the second.

CCOc1nc(Nc2ccc(C(=O)N3CCC(N4CCN(C)CC4)CC3)cc2OC)nc2[nH]ccc12 [Example E4, (4-((4-ethoxy-7H-pyrrolo-[2,3-d]pyrimidin-2-yl)amino)-3-methoxyphenyl)(4-(4-methylpiperazin-1-yl)-piperidin-1-yl)-methanone] and CCOc1nc(Nc2ccc(C(=O)N3CCC4(CC3)CN(C)C4)cc2OC)nc2[nH]ccc12 [Example E13, (4-((4-ethoxy-7H-pyrrolo-[2,3-d]-pyrimidin-2-yl)amino)-3-methoxyphenyl)(2-methyl-2,7-diazaspiro-[3.5]-nonan-7-yl)methanone] cannot be ordered by IC50: no more than 0.01 µM for the first, no more than 0.01 µM for the second.

Compared with CCOc1nc(Nc2ccc(C(=O)N3CCC4(CC3)CC4)cc2OC)nc2[nH]ccc12 [Example E16, (4-((4-ethoxy-7H-pyrrolo-[2,3-d]-pyrimidin-2-yl)amino)-3-methoxyphenyl)(6-azaspiro-[2.5]octan-6-yl)methanone], CCOc1nc(Nc2ccc(C(=O)N3CCN(C)C[C@H]3C)cc2OC)nc2[nH]ccc12 [Example E40, (R)-(2,4-dimethylpiperazin-1-yl)(4-((4-ethoxy-7H-pyrrolo-[2,3-d]-pyrimidin-2-yl)-amino)-3-methoxyphenyl)methanone] is 1.6-fold lower in IC50: 0.0158 µM for the first, 0.01 µM for the second.

CCOc1nc(Nc2ccc(C(=O)N3CCOC[C@@H]3C)cc2OC)nc2[nH]ccc12 [Example E27, (S)-(4-((4-ethoxy-7H-pyrrolo-[2,3-d]pyrimidin-2-yl)amino)-3-methoxyphenyl)(3-methylmorpholino)methanone] and CCOc1nc(Nc2ccc(C(=O)N3CCN(C)CC3)cc2OC)nc2[nH]cc(C)c12 [Example E31, (4-((4-ethoxy-5-methyl-7H-pyrrolo-[2,3-d]pyrimidin-2-yl)amino)-3-methoxyphenyl)(4-methylpiperazin-1-yl)methanone] cannot be ordered by IC50: no more than 0.01 µM for the first, no more than 0.01 µM for the second.
